The results in this text go back to BindingDB's records for doi:10.1016/S1074-5521(02)00240-5 (Nippon Roche Research Center, 2002).

Experiment [1] has as its target T1, Glycylpeptide N-tetradecanoyltransferase (Candida albicans (strain SC5314 / ATCC MYA-2876), UniProt P30418).
T1 sequence (P30418 whole entry): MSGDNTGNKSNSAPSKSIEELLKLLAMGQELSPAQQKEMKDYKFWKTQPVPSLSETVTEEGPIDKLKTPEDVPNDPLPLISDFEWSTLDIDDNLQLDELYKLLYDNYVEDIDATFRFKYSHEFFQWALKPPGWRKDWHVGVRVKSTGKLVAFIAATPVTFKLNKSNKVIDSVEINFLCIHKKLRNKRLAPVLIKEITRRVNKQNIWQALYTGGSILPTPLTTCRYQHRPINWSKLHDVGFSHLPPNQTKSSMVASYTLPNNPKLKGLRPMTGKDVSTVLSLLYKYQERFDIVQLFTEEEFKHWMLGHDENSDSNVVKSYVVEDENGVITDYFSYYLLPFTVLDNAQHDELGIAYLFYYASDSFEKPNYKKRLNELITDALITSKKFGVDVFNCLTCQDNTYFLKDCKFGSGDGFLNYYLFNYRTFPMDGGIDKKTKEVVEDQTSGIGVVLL
The experiment in a line: Inhibition Assay.

Experiment [2] deals with T2, Glycylpeptide N-tetradecanoyltransferase 1 (Homo sapiens, UniProt P30419).
T2 sequence (P30419 whole entry): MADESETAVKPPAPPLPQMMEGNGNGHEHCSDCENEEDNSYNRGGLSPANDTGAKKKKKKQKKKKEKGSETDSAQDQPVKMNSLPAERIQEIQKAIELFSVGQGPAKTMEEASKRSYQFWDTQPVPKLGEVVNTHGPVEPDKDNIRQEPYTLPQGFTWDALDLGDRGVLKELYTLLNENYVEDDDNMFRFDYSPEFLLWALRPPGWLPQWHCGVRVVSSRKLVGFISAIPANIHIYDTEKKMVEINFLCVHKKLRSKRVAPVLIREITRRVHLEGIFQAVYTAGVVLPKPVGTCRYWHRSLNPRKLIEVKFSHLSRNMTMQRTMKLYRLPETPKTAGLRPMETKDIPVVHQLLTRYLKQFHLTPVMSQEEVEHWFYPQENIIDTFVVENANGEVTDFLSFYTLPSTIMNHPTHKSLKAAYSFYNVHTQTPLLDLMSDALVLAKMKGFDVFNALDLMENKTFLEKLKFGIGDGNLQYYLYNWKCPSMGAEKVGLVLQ
In words: Inhibition Assay.

Take `COc1ccc(C(=O)NN=Cc2ccccc2C(=O)O)cc1OC` [2-[(veratroylhydrazono)methyl]benzoic acid]: half-maximal inhibition in experiment [1] (IC50) required 830 nM. In other words, the sub-micromolar range.
For `O=C(Nc1ccc(S(=O)(=O)NC2=NCCCCC2)cc1)C1COc2ccccc2O1` (stereo not drawn) [MLS000761278], the IC50 in experiment [1] is 1100 nM; in experiment [2], greater than 570000 nM.
